Reference: patent US11591323B2, “Muscarinic agonists as non-steroidal and non-opioid analgesics and methods of use thereof” (Barry University, priority 2019, dated 2023)

What was measured:
[1] = tested on: brain cortex (rich in M1); assay: accumulation of IPX in dissipated rat brain cortex; format: cell-based; conditions: in words
Procedure: Effects of compounds 6A and 7A were then measured ex vivo in dissipated rat tissues (FIG. 5). Accumulation of IPX was measured in dissipated brain cortex (rich in M1 & M3), submaxillary gland (M1 & M3), and ventral tegmental area (M5). Native tissues express about 10-times less muscarinic receptors than CHO cell lines. Accumulation of cAMP was measured in cerebellum (M2) and striatum (M4).
Rat dissipated tissues: Suspension of dissipated tissues from rat brain cortex, cerebellum, striatum, ventral tegmental area (VTA) and submaxillary glands was prepared as described previously in supplementary methods. Adult 8-weeks old male Wistar rats were scarified by cervical dislocation in accordance with current legislative and guidelines under permission of Czech Ministry of Agriculture 16OZ23113/2017-17214. Tissues were dissected immediately. Submaxillary glands were minced by scissors. Tissues were dispersed by incubation for 15 min at 37° C. in KHB supplemented with trypsin and trituration every 5 min. Large undissipated parts were removed by cell mesh. […]
Measurements of the production of cAMP and inositol phosphates: Levels of second messengers cAMP and inositol phosphates were determined in radiochemical chromatography assays as described previously. […] Samples were applied to alumina columns (1.5 g of alumina per column), washed with 2 ml ammonium acetate (pH=7.0) and eluted from columns with 4 ml ammonium acetate and measured by liquid scintillation spectrometry. […] After separation of water and organic phases, 0.6 ml of water phase was applied to Dowex columns (1.5 g of Dowex per column), washed by 20 ml of 60 mM ammonium formate/5 mM sodium borate buffer and eluted from columns with 4 ml of 1M ammonium formate/0.1 formic acid buffer and measured by liquid scintillation spectrometry.
To exclude the possibility that the observed effects of compounds 6A and 7A are the result of overexpression in the heterologous system, functional response to the compounds was measured ex vivo in dissipated native rat tissues. […] Accumulation of cAMP was measured in M2-rich cerebellum and M4-rich striatum.

[2] = target: T1, M4 muscarinic receptor (Homo sapiens, UniProt P08173); assay: stimulation of cAMP, M4 CHO cells (M4Gs); format: cell-based; parameters: host or cells: CHO cells, stably transfected; conditions: for RAi / E′MAX / τ / Δlog(τ/KA): M4Gs (↑cAMP); for RAi: Table 8, relative to carbachol; for E′MAX / τ: Table 8; for Δlog(τ/KA): Table 8, to carbachol
T1 sequence (P08173 1-479): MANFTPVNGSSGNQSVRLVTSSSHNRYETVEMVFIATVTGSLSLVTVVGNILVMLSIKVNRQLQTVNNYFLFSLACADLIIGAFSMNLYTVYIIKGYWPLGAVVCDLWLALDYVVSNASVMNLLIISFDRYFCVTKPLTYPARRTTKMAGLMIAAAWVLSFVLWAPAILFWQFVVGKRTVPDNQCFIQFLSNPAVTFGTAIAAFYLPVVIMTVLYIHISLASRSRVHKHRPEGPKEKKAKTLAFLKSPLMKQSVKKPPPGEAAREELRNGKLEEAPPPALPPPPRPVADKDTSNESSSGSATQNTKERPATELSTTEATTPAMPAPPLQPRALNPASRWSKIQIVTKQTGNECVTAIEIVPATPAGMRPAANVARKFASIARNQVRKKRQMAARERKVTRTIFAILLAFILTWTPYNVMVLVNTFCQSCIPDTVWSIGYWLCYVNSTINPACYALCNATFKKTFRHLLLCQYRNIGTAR
Procedure: To determine level of cAMP, cells in suspension were pre-incubated for 1 h with 0.4 μM [^3H]adenine, washed, and incubated for 10 min in the presence of isobutylmethylxanthine and 10 μM forskolin. […] Incubation was ended by addition of 0.2 ml of 2.5 M HCl to the samples. Samples were applied to alumina columns (1.5 g of alumina per column), washed with 2 ml ammonium acetate (pH=7.0) and eluted from columns with 4 ml ammonium acetate and measured by liquid scintillation spectrometry. […] The incubation was stopped by addition of 0.5 ml of chloroform methanol HCl mixture (2:1:0.1). After separation of water and organic phases, 0.6 ml of water phase was applied to Dowex columns (1.5 g of Dowex per column), washed by 20 ml of 60 mM ammonium formate/5 mM sodium borate buffer and eluted from columns with 4 ml of 1M ammonium formate/0.1 formic acid buffer and measured by liquid scintillation spectrometry.
Measurements of the production of cAMP and inositol phosphates: Levels of second messengers cAMP and inositol phosphates were determined in radiochemical chromatography assays as described previously. To determine level of cAMP, cells in suspension were pre-incubated for 1 h with 0.4 μM [^3H]adenine, washed, and incubated for 10 min in the presence of isobutylmethylxanthine and 10 μM forskolin. […] Incubation was ended by addition of 0.2 ml of 2.5 M HCl to the samples. Samples were applied to alumina columns (1.5 g of alumina per column), washed with 2 ml ammonium acetate (pH=7.0) and eluted from columns with 4 ml ammonium acetate and measured by liquid scintillation spectrometry. […] For this purpose, new CHO cell lines stably expressing promiscuous G15 G-protein and M2 or M4 receptor were generated by transfection with pCMV/hygro vector and hygromycin selection. To determine the rate of formation of inositol phosphates IPX, suspended cells were pre-incubated with 0.1 μM [^3H]myo-inositol for 60 min, washed, and incubated with 10 mM LiCl for 15 min. […] The incubation was stopped by addition of 0.5 ml of chloroform methanol HCl mixture (2:1:0.1). After separation of water and organic phases, 0.6 ml of water phase was applied to Dowex columns (1.5 g of Dowex per column), washed by 20 ml of 60 mM ammonium formate/5 mM sodium borate buffer and eluted from columns with 4 ml of 1M ammonium formate/0.1 formic acid buffer and measured by liquid scintillation spectrometry.
For bi-phasic response, curves were inhibitory and stimulatory phase were fitted separately. Operational Model of Functional Agonism
[formula] where y is functional response at concentration of tested compound x, EMAX is maximal response of the system, KA is equilibrium dissociation constant and nH is slope factor. Eq. 5 was fitted to data from functional experiments. Eq. 5 was fitted to data by the two-step procedure described earlier. […] In the second step, Eq. 5 with EMAX fixed to the value determined in the first step was fitted to individual experimental data sets. Relative Intrinsic Activity

| SMILES | accumulation of IPX [1] | RAi [2] | E′MAX [2] | τ [2] | Δlog(τ/KA) [2] | EC50 [2] | Kd [2] |
| --- | --- | --- | --- | --- | --- | --- | --- |
| C1=CCN(Cc2cccs2)CC1.Cl [Compound 6A, 1-[(thiophen-2-yl)methyl]-1,2,3,6-tetrahydropyridin-1-ium chloride] | negligible increase in IPX | 0 |  |  |  |  |  |
| C[N+]1(Cc2cccs2)CC=CCC1.[I-] (centres unmarked) [Compound 7A, 1-methyl-1-[(thiophen-2-yl)methyl]-1,2,3,6-tetrahydropyridin-1-ium iodide] | negligible increase in IPX | 0 |  |  |  |  |  |
| C[N+](C)(C)CCOC(N)=O [carbachol, reference compound] | profound accumulation of IPX |  | 2.9 ± 0.2 fold increase | 1.9 ± 0.2 | 0 |  |  |
| O=C1CCCN1CC#CCN1CCCC1 [oxotremorine, reference compound] |  | 3.58 ± 0.31 | 2.6 ± 0.2 fold increase | 1.3 ± 0.1 | −0.55 ± 0.06 | 2.75 µM | 6.31 µM |
